Reference: patent publication US20250215012A1, “IKZF2 DEGRADERS AND USES THEREOF” (REGENTS OF THE UNIVERSITY OF MICHIGAN, priority 2022, published 2025)
Read-outs that look alike come from different tables or passages of the source.

Assays:
IKZF2 = IKZF2 (Homo sapiens (Human), UniProt Q96SW2+Q9UKS7); experiment: IKZF2 HiBit Assay (HEK293T Flp-in-HiBiT cells); format: cell-based; settings: for DC50: read-out: IKZF2 HiBit degradation DC50; for Dmax: HEK-293T, read-out: IKZF2 HiBit degradation Dmax
Procedure: The HiBiT protein tagging system was applied to modified HEK293T Flp-in-HiBiT cells (polyclone) via a CRISPR/Cas9—mediated insertion of the HiBiT peptide tag (Promega™) to the N-terminus of the IKZF2 gene locus (Neon™ transfection system). Test and reference compounds are diluted from 1 mM at 3 folds for 11 doses. 25 nL of diluted compound is transferred to assay plates (Corning3570) using ECHO550, the final DMSO concentration @0.1%. The cells are seeded in 3000/[…]/well to compound plates. It is then incubated for 6 hrs in TC incubator. The amount of Nano-Glo® HiBiT lytic reagent needed to perform the desired experiments is calculated. The Nano-Glo® HiBiT lytic reagent is brought to room temperature. The LgBiT protein is diluted to 1:100 and the Nano-Glo® HiBiT lytic substrate is diluted to 1:50 into an appropriate volume of room temperature Nano-Glo® HiBiT lytic buffer. […] of the detection reagent (or without LgBiT) is dispensed to corresponding well according to the layout. The plate is then shaked for 10 mins at room temperature. After briefly centrifuge, the plate is read on Envision. At the indicated timepoints, the Nano-Glo® HiBiT lytic detection system (Promega™) was utilized for detecting bioluminescence of the HiBiT tag in treated cells: abundance of the tag is proportionate to the level of luminescence. Following normalization to DMSO, dose-response curves were plotted (GraphPad Prism) to determine the concentration points at which 50% of HiBiT-Helios degradation was achieved by each compound. The extent of degradation (range of luminescence) from the highest to lowest concentration points was calculated to determine the Dmax.

IKZF1 = IKZF1 (Homo sapiens (Human), UniProt Q13422+Q96SW2); experiment: IKZF1 HiBit Assay (HEK293T Flp-in-HiBiT-IKZF1 stable cell line); format: cell-based; settings: for DC50: read-out: IKZF1 HiBit degradation DC50; for Dmax: HEK-293T, read-out: IKZF1 HiBit degradation Dmax
Procedure: The HiBiT protein tagging system was applied to modified Cells: modified HEK293T Flp-in-HiBiT-IKZF1 stable cell line (polyclone) via a CRISPR/Cas9—mediated insertion of the HiBiT peptide tag (Promega™) to the N-terminus of the IKZF2 gene locus (Neon™ transfection system).
Test compound from 10 mM and reference compound (CC-92480 from 50 mM and I-57 from 10 mM) are diluted at 3 folds for 11 doses. 25 nL of diluted compound is transferred to assay plates (Corning3571) using ECHO550, the final DMSO concentration @0.1%. The cells are seeded in 3000/[…]/well to compound plates. The plates are incubated for 6 hrs in TC incubator. The amount of Nano-Glo® HiBiT lytic reagent needed to perform the desired experiments is calculated. The Nano-Glo® HiBiT lytic reagent is brought to room temperature. The LgBiT protein is diluted to 1:100 and the Nano-Glo® HiBiT lytic substrate is brought to 1:50 into an appropriate volume of room temperature Nano-Glo® HiBiT lytic buffer. […] of the detection reagent (or without LgBiT) is dispensed to corresponding well according to the layout. The plate is shaked for 10 mins at room temperature. After briefly centrifuging, the plate is read on Envision. At the indicated timepoints, the Nano-Glo® HiBiT lytic detection system (Promega™) was utilized for detecting bioluminescence of the HiBiT tag in treated cells: abundance of the tag is proportionate to the level of luminescence. Following normalization to DMSO, dose-response curves were plotted (GraphPad Prism) to determine the concentration points at which 50% of HiBiT-Ikaros degradation was achieved by each compound. The extent of degradation (range of luminescence) from the highest to lowest concentration points was calculated to determine the Dm.

[1] = target: His tagged CRBN+DDB−DLS7+CXU4 (Homo sapiens (Human), UniProt Q96SW2); experiment: IC50 Measurements for Binding to CRBN/DDBI (HTRF); settings: Cy5-labeled Thalidomide probe, one hour incubation
[2] = HEK293T Flp-in-HiBiT cells, 6 hrs
[3] = HEK293T Flp-in-HiBiT-IKZF1 cells, 6 hrs

His tagged CRBN+DDB−DLS7+CXU4, sequence (Q96SW2 whole entry): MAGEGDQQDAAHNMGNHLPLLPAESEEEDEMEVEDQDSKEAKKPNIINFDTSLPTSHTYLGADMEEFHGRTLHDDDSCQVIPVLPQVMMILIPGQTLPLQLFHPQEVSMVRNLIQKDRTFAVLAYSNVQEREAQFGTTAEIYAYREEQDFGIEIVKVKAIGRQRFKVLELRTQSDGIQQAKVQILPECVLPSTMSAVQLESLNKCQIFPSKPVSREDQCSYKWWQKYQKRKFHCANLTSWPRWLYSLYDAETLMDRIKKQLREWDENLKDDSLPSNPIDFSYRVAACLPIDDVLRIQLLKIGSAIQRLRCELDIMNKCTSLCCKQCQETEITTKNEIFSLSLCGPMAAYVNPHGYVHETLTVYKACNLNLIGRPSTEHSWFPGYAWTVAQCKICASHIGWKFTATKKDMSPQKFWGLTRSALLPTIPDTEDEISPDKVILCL
His tagged CRBN+DDB−DLS7+CXU4, sequence (Q16531 whole entry partner): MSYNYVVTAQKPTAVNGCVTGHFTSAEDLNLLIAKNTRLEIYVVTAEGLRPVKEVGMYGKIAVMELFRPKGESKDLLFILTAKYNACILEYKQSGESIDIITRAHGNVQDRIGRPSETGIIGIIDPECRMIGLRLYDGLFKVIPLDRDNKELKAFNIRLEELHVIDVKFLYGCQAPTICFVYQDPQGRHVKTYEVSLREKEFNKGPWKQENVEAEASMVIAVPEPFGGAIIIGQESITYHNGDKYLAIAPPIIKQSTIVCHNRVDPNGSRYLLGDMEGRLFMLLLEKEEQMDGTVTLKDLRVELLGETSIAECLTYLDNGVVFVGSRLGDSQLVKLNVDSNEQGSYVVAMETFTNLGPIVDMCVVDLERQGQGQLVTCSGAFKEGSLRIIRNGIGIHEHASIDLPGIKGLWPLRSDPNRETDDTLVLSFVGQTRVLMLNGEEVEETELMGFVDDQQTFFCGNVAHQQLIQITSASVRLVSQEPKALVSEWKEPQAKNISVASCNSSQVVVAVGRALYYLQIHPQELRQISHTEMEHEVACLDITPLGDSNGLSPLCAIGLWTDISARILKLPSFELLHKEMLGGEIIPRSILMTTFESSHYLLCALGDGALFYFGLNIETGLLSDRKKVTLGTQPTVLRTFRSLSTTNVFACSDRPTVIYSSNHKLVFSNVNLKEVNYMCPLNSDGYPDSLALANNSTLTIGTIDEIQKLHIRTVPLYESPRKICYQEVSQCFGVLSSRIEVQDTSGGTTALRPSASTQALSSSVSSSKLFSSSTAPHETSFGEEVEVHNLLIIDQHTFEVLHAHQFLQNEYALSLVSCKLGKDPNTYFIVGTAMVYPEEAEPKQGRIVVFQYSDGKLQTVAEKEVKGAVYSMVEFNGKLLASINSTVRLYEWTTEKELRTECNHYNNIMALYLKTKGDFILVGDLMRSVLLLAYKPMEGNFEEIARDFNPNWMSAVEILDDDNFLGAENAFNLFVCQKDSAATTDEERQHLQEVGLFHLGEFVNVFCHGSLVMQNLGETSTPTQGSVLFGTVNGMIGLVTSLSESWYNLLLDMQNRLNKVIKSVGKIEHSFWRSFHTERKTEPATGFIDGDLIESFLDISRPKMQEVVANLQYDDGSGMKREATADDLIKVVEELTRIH
IKZF2, sequence (Q9UKS7 whole entry): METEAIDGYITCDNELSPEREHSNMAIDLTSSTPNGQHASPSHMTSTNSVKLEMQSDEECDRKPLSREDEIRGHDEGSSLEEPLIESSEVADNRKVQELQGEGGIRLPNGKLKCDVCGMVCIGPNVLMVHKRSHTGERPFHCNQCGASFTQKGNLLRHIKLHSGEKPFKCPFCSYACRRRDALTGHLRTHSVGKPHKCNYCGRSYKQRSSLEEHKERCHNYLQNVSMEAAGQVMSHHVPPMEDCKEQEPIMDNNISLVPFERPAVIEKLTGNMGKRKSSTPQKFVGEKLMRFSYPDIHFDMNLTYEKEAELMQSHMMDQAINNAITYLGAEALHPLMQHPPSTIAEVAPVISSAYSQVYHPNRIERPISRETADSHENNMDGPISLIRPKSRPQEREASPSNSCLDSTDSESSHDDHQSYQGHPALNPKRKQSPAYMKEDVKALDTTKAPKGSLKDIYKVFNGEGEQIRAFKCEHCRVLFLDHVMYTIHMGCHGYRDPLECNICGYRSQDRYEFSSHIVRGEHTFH
IKZF2, sequence (Q96SW2 whole entry): as the sequence (Q96SW2 whole entry) above
IKZF2, sequence (Q16531 whole entry partner): as the sequence (Q16531 whole entry partner) above
IKZF1, sequence (Q13422 whole entry): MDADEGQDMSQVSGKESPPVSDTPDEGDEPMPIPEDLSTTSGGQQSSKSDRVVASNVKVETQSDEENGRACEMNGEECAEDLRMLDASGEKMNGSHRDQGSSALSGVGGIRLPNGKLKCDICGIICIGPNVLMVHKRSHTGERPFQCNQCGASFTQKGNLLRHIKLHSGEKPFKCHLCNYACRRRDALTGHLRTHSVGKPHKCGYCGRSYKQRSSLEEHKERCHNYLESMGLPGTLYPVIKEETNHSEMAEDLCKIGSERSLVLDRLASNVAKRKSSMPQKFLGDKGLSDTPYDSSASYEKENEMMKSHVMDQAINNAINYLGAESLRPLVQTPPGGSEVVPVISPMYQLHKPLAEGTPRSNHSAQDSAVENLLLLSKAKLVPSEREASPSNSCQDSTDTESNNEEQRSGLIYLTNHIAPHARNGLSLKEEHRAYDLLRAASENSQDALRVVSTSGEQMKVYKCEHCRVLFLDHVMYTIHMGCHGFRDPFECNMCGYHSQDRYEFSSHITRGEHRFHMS
IKZF1, sequence (Q96SW2 whole entry): as the sequence (Q96SW2 whole entry) above
IKZF1, sequence (Q16531 whole entry partner): as the sequence (Q16531 whole entry partner) above

O=C1CC[C@H](N2Cc3c(ccc4c3OCC43CCN(Cc4cn(-c5ccc(Cl)cc5)nc4C(F)(F)F)CC3)C2=O)C(=O)N1 [Compound B5, (S)-3-(1′-((1-(4-chlorophenyl)-3-(trifluoromethyl)-1H-pyrazol-4-yl)methyl)-6-oxo-6,8-dihydro-2H,7H-spiro[furo[2,3-e]isoindole-3,4′-piperidin]-7-yl)piperidine-2,6-dione]
DC50 (IKZF2; [2]): 1 to 10 nM | Dmax (IKZF2; [2]): 60 to 80% | DC50 (IKZF1; [3]): > 1000 nM | Dmax (IKZF1; [3]): < 20% | IC50 [1]: 100 to 500 nM

Cn1cc(-c2cccc(CN3CC[C@@]4(COc5c4ccc4c5CN([C@H]5CCC(=O)NC5=O)C4=O)C(F)(F)C3)c2)cn1 [Compound B52, (S)-3-((R)-3′,3′-difluoro-1′-(3-(1-methyl-1H-pyrazol-4-yl)benzyl)-6-oxo-6,8-dihydro-2H,7H-spiro[furo[2,3-e]isoindole-3,4′-piperidin]-7-yl)piperidine-2,6-dione]
DC50 (IKZF2; [2]): 1 to 10 nM | Dmax (IKZF2; [2]): 40 to 60% | DC50 (IKZF1; [3]): > 1000 nM | Dmax (IKZF1; [3]): < 20% | IC50 [1]: 100 to 500 nM

Cn1cc2cc(CN3CCC4(COc5c4ccc4c5CN([C@H]5CCC(=O)NC5=O)C4=O)C(F)(F)C3)ccc2n1 (stereo partly drawn) [Compound B37, (3S)-3-(3′,3′-difluoro-1′-((2-methyl-2H-indazol-5-yl)methyl)-6-oxo-6,8-dihydro-2H,7H-spiro[furo[2,3-e]isoindole-3,4′-piperidin]-7-yl)piperidine-2,6-dione]
DC50 (IKZF2; [2]): 1 to 10 nM | Dmax (IKZF2; [2]): 60 to 80% | DC50 (IKZF1; [3]): > 1000 nM | Dmax (IKZF1; [3]): < 20% | IC50 [1]: < 100 nM

O=C1CC[C@H](N2Cc3c(ccc4c3OCC43CCN(Cc4ccc5[nH]ncc5c4)CC3(F)F)C2=O)C(=O)N1 (stereo partly drawn) [Compound B40, (3S)-3-(1′-((1H-indazol-5-yl)methyl)-3′,3′-difluoro-6-oxo-6,8-dihydro-2H,7H-spiro[furo[2,3-e]isoindole-3,4′-piperidin]7-yl) piperidine-2,6-dione]
DC50 (IKZF2; [2]): 1 to 10 nM | Dmax (IKZF2; [2]): 60 to 80% | DC50 (IKZF1; [3]): > 1000 nM | Dmax (IKZF1; [3]): < 20% | IC50 [1]: 100 to 500 nM

Cn1cc(-c2cccc(CN3CCC4(COc5c4ccc4c5CN([C@H]5CCC(=O)NC5=O)C4=O)C(F)(F)C3)c2)cn1 (stereo partly drawn) [Compound B39, (3S)-3-(3′,3′-difluoro-1′-(3-(1-methyl-1H-pyrazol-4-yl)benzyl)-6-oxo-6,8-dihydro-2H,7H-spiro[furo[2,3-e]isoindole-3,4′-piperidin]-7-yl) piperidine-2,6-dione]
DC50 (IKZF2; [2]): < 1 nM | Dmax (IKZF2; [2]): 60 to 80% | DC50 (IKZF1; [3]): > 1000 nM | Dmax (IKZF1; [3]): < 20% | IC50 [1]: 100 to 500 nM

[2H]C([2H])(c1cccc(-c2cnn(C)c2)c1)N1CCC2(CC1)COc1c2ccc2c1CN([C@H]1CCC(=O)NC1=O)C2=O [Compound B11, (S)-3-(1′-((3-(1-methyl-1H-pyrazol-4-yl)phenyl)methyl-d2)-6-oxo-6,8-dihydro-2H,7H-spiro[furo[2,3-e]isoindole-3,4′-piperidin]-7-yl)piperidine-2,6-dione]
DC50 (IKZF2; [2]): 1 to 10 nM | Dmax (IKZF2; [2]): > 80% | DC50 (IKZF1; [3]): > 1000 nM | Dmax (IKZF1; [3]): < 20% | IC50 [1]: < 100 nM

Cn1cc2cccc(CN3CCC4(COc5c4ccc4c5CN([C@H]5CCC(=O)NC5=O)C4=O)C(F)(F)C3)c2n1 (stereo partly drawn) [Compound B36, (3S)-3-(3′,3′-difluoro-1′-((2-methyl-2H-indazol-7-yl)methyl)-6-oxo-6,8-dihydro-2H,7H-spiro[furo[2,3-e]isoindole-3,4′-piperidin]-7-yl)piperidine-2,6-dione]
DC50 (IKZF2; [2]): 1 to 10 nM | Dmax (IKZF2; [2]): 60 to 80% | DC50 (IKZF1; [3]): < 1 nM | Dmax (IKZF1; [3]): 20 to 40% | IC50 [1]: 100 to 500 nM

O=C1CC[C@H](N2Cc3c(ccc4c3OCC43CCN(Cc4ccc5c(c4)CC(=O)N5)CC3(F)F)C2=O)C(=O)N1 (stereo partly drawn) [Compound B28, (3S)-3-(3′,3′-difluoro-6-oxo-1′-((2-oxoindolin-5-yl)methyl)-6,8-dihydro-2H,7H-spiro[furo[2,3-e]isoindole-3,4′-piperidin]-7-yl)piperidine-2,6-dione]
DC50 (IKZF2; [2]): 1 to 10 nM | Dmax (IKZF2; [2]): 60 to 80% | DC50 (IKZF1; [3]): > 1000 nM | Dmax (IKZF1; [3]): < 20% | IC50 [1]: 100 to 500 nM

O=C1CC[C@H](N2Cc3c(ccc4c3OCC43CCN(Cc4cnn(-c5ccc(Cl)cc5)c4)CC3(F)F)C2=O)C(=O)N1 (stereo partly drawn) [Compound B30, (3S)-3-(1′-((1-(4-chlorophenyl)-1H-pyrazol-4-yl)methyl)-3′,3′-difluoro-6-oxo-6,8-dihydro-2H,7H-spiro[furo[2,3-e]isoindole-3,4′-piperidin]-7-yl)piperidine-2,6-dione]
DC50 (IKZF2; [2]): 1 to 10 nM | Dmax (IKZF2; [2]): 60 to 80% | DC50 (IKZF1; [3]): > 1000 nM | Dmax (IKZF1; [3]): < 20% | IC50 [1]: 1000 to 5000 nM

Cn1ncc2cc(CN3CCC4(COc5c4ccc4c5CN([C@H]5CCC(=O)NC5=O)C4=O)C(F)(F)C3)ccc21 (stereo partly drawn) [Compound B38, (3S)-3-(3′,3′-difluoro-1′-((1-methyl-1H-indazol-5-yl)methyl)-6-oxo-6,8-dihydro-2H,7H-spiro[furo[2,3-e]isoindole-3,4′-piperidin]-7-yl) piperidine-2,6-dione]
DC50 (IKZF2; [2]): 1 to 10 nM | Dmax (IKZF2; [2]): 60 to 80% | DC50 (IKZF1; [3]): > 1000 nM | Dmax (IKZF1; [3]): < 20% | IC50 [1]: 100 to 500 nM

[2H]C([2H])(c1cccc(-c2cnn(C(F)F)c2)c1)N1CCC2(CC1)COc1c2ccc2c1CN([C@H]1CCC(=O)NC1=O)C2=O [Compound B10, (S)-3-(1′-((3-(1-(difluoromethyl)-1H-pyrazol-4-yl)phenyl)methyl-d2)-6-oxo-6,8-dihydro-2H,7H-spiro[furo[2,3-e]isoindole-3,4′-piperidin]-7-yl) piperidine-2,6-dione]
DC50 (IKZF2; [2]): 1 to 10 nM | Dmax (IKZF2; [2]): 60 to 80% | DC50 (IKZF1; [3]): > 1000 nM | Dmax (IKZF1; [3]): < 20% | IC50 [1]: 100 to 500 nM

Cc1cc2c(c3c1C(=O)N([C@H]1CCC(=O)NC1=O)C3)OCC21CCN(Cc2cccc(-c3cnn(C)c3)c2)CC1 [Compound B20, (S)-3-(5-methyl-1′-(3-(1-methyl-1H-pyrazol-4-yl)benzyl)-6-oxo-6,8-dihydro-2H,7H-spiro[furo[2,3-e]isoindole-3,4′-piperidin]-7-yl)piperidine-2,6-dione]
DC50 (IKZF2; [2]): > 1000 nM | Dmax (IKZF2; [2]): 20 to 40% | DC50 (IKZF1; [3]): > 1000 nM | Dmax (IKZF1; [3]): < 20% | IC50 [1]: 500 to 1000 nM

O=C1CC[C@H](N2Cc3c(ccc4c3OCC43CCN(Cc4cc(-c5ccc(Cl)cc5)no4)CC3)C2=O)C(=O)N1 [Compound B2, (S)-3-(1′-((3-(4-chlorophenyl)isoxazol-5-yl)methyl)-6-oxo-6,8-dihydro-2H,7H-spiro[furo[2,3-e]isoindole-3,4′-piperidin]-7-yl)piperidine-2,6-dione]
DC50 (IKZF2; [2]): 1 to 10 nM | Dmax (IKZF2; [2]): 60 to 80% | DC50 (IKZF1; [3]): 10 to 100 nM | Dmax (IKZF1; [3]): 20 to 40% | IC50 [1]: 1000 to 5000 nM

[2H]C([2H])(c1ccc2cnn(C)c2c1)N1CCC2(CC1)COc1c2ccc2c1CN([C@H]1CCC(=O)NC1=O)C2=O [Compound B8, (S)-3-(1′-((1-methyl-1H-indazol-6-yl)methyl-d2)-6-oxo-6,8-dihydro-2H,7H-spiro[furo[2,3-e]isoindole-3,4′-piperidin]-7-yl)piperidine-2,6-dione]
DC50 (IKZF2; [2]): 1 to 10 nM | Dmax (IKZF2): 60 to 80% | DC50 (IKZF1; [3]): > 1000 nM | Dmax (IKZF1): < 20% | IC50 [1]: 100 to 500 nM

[2H]C([2H])(c1cccc(-c2cnn(C)c2)c1)N1CCC2(COc3c2ccc2c3CN([C@H]3CCC(=O)NC3=O)C2=O)C(F)(F)C1 (stereo partly drawn) [Compound B50]
DC50 (IKZF2; [2]): 1 to 10 nM | Dmax (IKZF2; [2]): 60 to 80% | DC50 (IKZF1; [3]): > 1000 nM | Dmax (IKZF1; [3]): < 20% | IC50 [1]: 100 to 500 nM
